Source: US8304447B2, “2-acylaminopropoanol-type glucosylceramide synthase inhibitors” (Genzyme Corporation, priority 2007, dated 2012)
Where two headings read alike, the source gives them in different places.

System: GM3
Assay: GM3 Elisa assay
Format: cell-based
Conditions: B16-FO cells, read-out: IC50_uM_Mean
Procedure, shortened: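 Cellular GM3 ELISA: fixed cells probed with monoclonal anti-GM3 (NeuAc), HRP-conjugated anti-IgM and fluorogenic Quantablu substrate, read at Ex 325/Em 420. Cells were B16-FO, treated 2 days after a 6 h attachment on collagen-coated wells.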

[1] = 48 h, Table 2, 2 days incubation
[2] = 48 h, Table 1, 2 days incubation

SMILES	IC50 (Table 3 (IC 50 Values))	further results
CC(C)Oc1ccc(C(=O)CCCCCC(=O)N[C@H](CN2CCCC2)[C@H](O)c2ccc3c(c2)OCO3)cc1 [Compound 268, N-((1R,2R)-1-(benzo[δ][1,3]dioxol-5-yl)-1-hydroxy-3-(pyrrolidin-1-yl)propan-2-yl)-7-(4-isopropoxyphenyl)-7-oxoheptanamide (2S,3S)-2,3-dihydroxysuccinate]	–	IC50 [1]: ≤ 100 nM
COc1ccc(OCCC(=O)N(Cc2ccc(-c3noc(C)n3)cc2)[C@H](CN2CCCC2)[C@H](O)c2ccc(O)cc2)cc1 [Compound 720]	3000 to 10000 nM	–
COc1ccc([C@@H](O)[C@@H](CN2CCCC2)NC(=O)CCCCCC(=O)c2ccc(OC(C)C)cc2)cc1 [Compound 271]	–	IC50 [1]: ≤ 100 nM
CCCCCCCC(=O)N[C@H](CN1CCCC1)[C@H](O)c1ccc(OC)c(F)c1 [Compound 340]	100 to 1000 nM	–
CC(C)Oc1ccc(C(=O)CCC(=O)N[C@H](CN2CCCC2)[C@@H](O)c2ccc3c(c2)OCCO3)cc1 [Compound 162, N-((1R,2R)-1-(2,3-dihydrobenzo[β][1,4]dioxin-6-yl)-1-hydroxy-3-(pyrrolidin-1-yl)propan-2-yl)-4-(4-isopropoxyphenyl)-4-oxobutanamide]	–	IC50 [2]: ≤ 100 nM
O=C(N[C@H](CN1CCCC1)[C@H](O)c1ccc2c(c1)OCCO2)C1(C(F)(F)F)CCC1 [Compound 614]	3000 to 10000 nM	–
O=C(CCOc1ccc(F)cc1)N[C@H](CN1C2CCC1CC2)[C@H](O)c1ccc2c(c1)OCCO2 [Compound 473]	≤ 100 nM	–
CCCCCCCCCCCCCCCC(=O)N[C@H](CN(C)C1CCCC1)[C@@H](O)c1ccc2c(c1)OCCO2 [Compound 685]	3000 to 10000 nM	–
CCCCCCCC(=O)N[C@@H](CN1CCCC1)[C@H](O)c1ccc2c(c1)OCCO2 [Compound 672]	3000 to 10000 nM	–
O=C(CCCCCC(=O)c1ccc(Cl)cc1)N[C@H](CN1CCCC1)[C@H](O)c1ccc2c(c1)OCCO2 [Compound 159, 7-(4-chlorophenyl)-N-((1R,2R)-1-(2,3-dihydrobenzo[β][1,4]dioxin-6-yl)-1-hydroxy-3-(pyrrolidin-1-yl)propan-2-yl)-7-oxoheptanamide]	–	IC50 [2]: ≤ 100 nM
COC[C@H]1CCCN1C[C@@H](NC(=O)CCCCCC(=O)c1ccc(OC)cc1)[C@H](O)c1ccc2c(c1)OCCO2 [Compound 539]	3000 to 10000 nM	–
COc1ccc(C(=O)CCCCC(=O)N(Cc2ccccn2)[C@H](CN2CCCC2)[C@H](O)c2ccc(O)cc2)cc1 [Compound 422]	3000 to 10000 nM	–
COc1ccc(C(=O)CCCCCC(=O)N[C@H](CN2CCCC2)[C@H](O)c2ccc3c(c2)OCCO3)cc1 [Compound 156, N-((1R,2R)-1-(2,3-dihydrobenzo[β][1,4]dioxin-6-yl)-1-hydroxy-3-(pyrrolidin-1-yl)propan-2-yl)-7-(4-methoxyphenyl)-7-oxoheptanamide]	–	IC50 [2]: ≤ 100 nM
COCCOCCOc1ccc([C@@H](O)[C@@H](CN2CCCC2)NC(=O)CCOc2ccc(OC)cc2)cc1 [Compound 713]	100 to 1000 nM	–
O=C(CCCS(=O)(=O)C1CCCCC1)N[C@H](CN1CCCC1)[C@H](O)c1ccc2c(c1)OCCO2 [Compound 561]	3000 to 10000 nM	–
COc1ccc(OCCC(=O)N[C@H](CN2CCCC2)[C@H](O)/C=C/c2ccccc2)cc1 [Compound 396]	3000 to 10000 nM	–
COc1ccc(C(=O)CCCCCC(=O)N[C@H](CN2CCCC2)[C@H](O)c2ccc(C)c(F)c2)cc1 [Compound 350]	≤ 100 nM	–
COc1ccc(OCCCC(=O)N[C@H](CN2CC[C@@H](F)C2)[C@H](O)c2ccc(OC(C)C)cc2)cc1 [Compound 445]	100 to 1000 nM	–
O=C(N[C@H](CN1CCCC1)[C@H](O)c1ccc2c(c1)OCCO2)c1cc(-c2cccs2)on1 [Compound 90, N-((1R,2R)-1-(2,3-dihydrobenzo[β][1,4]dioxin-6-yl)-1-hydroxy-3-(pyrrolidin-1-yl)propan-2-yl)-5-(thiophen-2-yl)isoxazole-3-carboxamide]	–	IC50 [2]: 100 to 1000 nM
COc1ccc(OCCOc2ccc([C@@H](O)C(CN3CCCC3)NC(=O)CCCCC(=O)c3ccc(OC)cc3)cc2)cc1 (stereo partly shown) [Compound 416]	≤ 100 nM	–
CCCCOc1ccc([C@@H](O)[C@@H](CN2CC[C@@H](F)C2)NC(=O)CCCCCOC2CCC2)cc1 [Compound 662]	100 to 1000 nM	–
Cc1nccn1C[C@@H](NC(=O)CCCOc1ccc(F)cc1)[C@H](O)c1ccc2c(c1)OCCO2 [Compound 570]	3000 to 10000 nM	–
O=C(CCCc1nc(-c2ccc(Cl)cc2)no1)N[C@H](CN1CCCC1)[C@H](OC(=O)CCCc1nc(-c2ccc(Cl)cc2)no1)c1ccc2c(c1)OCCO2 [Compound 253]	–	IC50 [1]: 100 to 1000 nM
COc1ccc(OCCCC(=O)N[C@H](CN2CC[C@@H](F)C2)[C@H](O)c2ccc(OCCCCF)cc2)cc1 [Compound 734]	≤ 100 nM	–
C[C@H](NC(=O)N[C@H](CN1CCCC1)[C@H](O)c1ccc2c(c1)OCCO2)c1ccccc1 [Compound 10, 1-((1R,2R)-1-(2,3-dihydrobenzo[β][1,4]dioxin-6-yl)-1-hydroxy-3-(pyrrolidin-1-yl)propan-2-yl)-3-((S)-1-phenylethyl)urea]	–	IC50 [2]: 100 to 1000 nM
COc1ccc(C(=O)CCCC(=O)N[C@H](CN2CCCC2)[C@H](O)c2ccc(Cl)cc2)cc1 [Compound 383]	100 to 1000 nM	–
COc1ccc(OCCC(=O)N[C@H](CN2CCCC2)[C@H](O)c2ccc3c(c2)OCCO3)cc1 [Compound 61, N-((1R,2R)-1-(2,3-dihydrobenzo[β][1,4]dioxin-6-yl)-1-hydroxy-3-(pyrrolidin-1-yl)propan-2-yl)-3-(4-methoxyphenoxy)propanamide]	–	IC50 [2]: ≤ 100 nM
COc1ccc(C(=O)CCCCC(=O)N(Cc2cccnc2)[C@H](CN2CCCC2)[C@H](O)c2ccc(O)cc2)cc1 [Compound 425]	3000 to 10000 nM	–

SMILES	IC50 (Table 3 (IC 50 Values))	further results
CCCCCCOc1ccc([C@@H](O)[C@@H](CN2CC[C@@H](F)C2)NC(=O)CCCCCC(=O)c2ccc(OC)cc2)cc1 [Compound 371]	≤ 100 nM	–
O=C(N[C@H](CN1CCCC1)[C@H](O)c1ccc2c(c1)OCCO2)C1CC[C@@H](C(=O)c2ccc(F)cc2)C1 (stereo partly shown) [Compound 635]	3000 to 10000 nM	–
Cc1nccn1C[C@@H](NC(=O)CCCCCC(=O)c1ccc(F)cc1)C(O)c1ccc2c(c1)OCCO2 (stereo partly shown) [Compound 569]	3000 to 10000 nM	–
O=C(CSc1ccccc1)N[C@H](CN1CCCC1)[C@H](O)c1ccc2c(c1)OCCO2 [Compound 11, N-((1R,2R)-1-(2,3-dihydrobenzo[β][1,4]dioxin-6-yl)-1-hydroxy-3-(pyrrolidin-1-yl)propan-2-yl)-2-(phenylthio)acetamide]	–	IC50 [2]: ≤ 100 nM
COc1ccc(C(=O)CCCCC(=O)N[C@H](CN2CCCC2)[C@H](O)c2ccccc2OC)cc1 [Compound 698]	100 to 1000 nM	–
CCOc1ccc(C(=O)CCC(=O)N[C@H](CN2CCCC2)[C@H](O)c2ccc3c(c2)OCCO3)cc1 [Compound 127, N-((1R,2R)-1-(2,3-dihydrobenzo[b][1,4]dioxin-6-yl)-1-hydroxy-3-(pyrrolidin-1-yl)propan-2-yl)-4-(4-ethoxyphenyl)-4-oxobutanamide]	–	IC50 [2]: 100 to 1000 nM
COc1ccc(C(=O)CCCCC(=O)N[C@H](CN2CCCC2)[C@H](O)c2ccc(OCCCOc3ccccc3)cc2)cc1 [Compound 433]	≤ 100 nM	–
O=C(CCCCC(=O)c1ccc(F)cc1)N[C@H](CN1CCCC1)[C@H](O)c1ccc2c(c1)OCCO2 [Compound 640]	100 to 1000 nM	–
O=C(CCCCCC(=O)C1CC1)N[C@H](CN1CCCC1)[C@H](O)c1ccc2c(c1)OCCO2 [Compound 619]	1000 to 3000 nM	–
O=C(N[C@H](CN1CCCC1)[C@H](O)c1ccc(Cl)cc1)OCc1ccccc1 [Compound 379]	100 to 1000 nM	–
CCCCCCCC(=O)N[C@H](Cc1ncc[nH]1)[C@H](O)c1ccc2c(c1)OCCO2 [Compound 563]	3000 to 10000 nM	–
COc1ccc(OCCC(=O)N[C@H](CN2CCC[C@H]2C)[C@@H](O)c2ccc3c(c2)OCCO3)cc1 [Compound 528]	1000 to 3000 nM	–
CCCCCCCC(=O)N[C@H](CN1CCCC1)[C@H](O)c1cc(OC)c2c(c1)OCCO2 [Compound 319]	–	IC50 [1]: 100 to 1000 nM
O=C(N[C@H](CO)[C@H](O)c1ccc(C(F)(F)F)cc1)OCc1ccccc1 [Compound 483]	3000 to 10000 nM	–
O=C(N[C@H](CN1CCCC1)[C@H](O)c1ccc2c(c1)OCCO2)C(CCc1ccc(F)cc1)C(F)(F)F (stereo partly shown) [Compound 615]	100 to 1000 nM	–
COc1ccc([C@@H](OC(=O)Cc2ccc(C(F)(F)F)cc2)[C@@H](CN2CCCC2)NC(=O)Cc2ccc(C(F)(F)F)cc2)cc1 [Compound 250]	–	IC50 [1]: 100 to 1000 nM
COc1ccc(C(=O)CCCCC(=O)N[C@H](CN2CCCC2)[C@H](O)c2ccc(OC)c(Cl)c2)cc1 [Compound 709]	≤ 100 nM	–
CC(C)Oc1ccc([C@@H](O)[C@@H](CN2CCC(F)C2)NC(=O)CCOc2ccc(Cl)cc2)cc1 (stereo partly shown) [Compound 725]	100 to 1000 nM	–
COc1ccc(C(=O)CCCCCC(=O)N[C@H](CNC(C)C)C(O)c2ccc3c(c2)OCCO3)cc1 (stereo partly shown) [Compound 465]	100 to 1000 nM	–
COc1ccc([C@@H](O)[C@@H](CN2CCCC2)NC(=O)OCc2ccccc2)cc1 [Compound 246]	–	IC50 (Table 2, 2 days incubation): 1000 to 3000 nM
COc1ccc(C(=O)CCCCCC(=O)N[C@H](CNC2CCCC2)[C@H](O)c2ccc3c(c2)OCCO3)cc1 [Compound 463]	100 to 1000 nM	–
COc1ccc([C@@H](O)[C@@H](CN2CCCC2)NC(=O)Cc2ccc(OC(F)(F)F)cc2)cc1C [Compound 389]	≤ 100 nM	–
COc1ccc([C@@H](O)[C@@H](CN2CCCC2)NC(=O)CCCCCC(C)=O)cc1 [Compound 279]	–	IC50 [1]: 1000 to 3000 nM
CCCCCCCCC(=O)N[C@H](CN1CCCC1)[C@H](O)c1ccc(OC)c(Cl)c1 [Compound 708]	≤ 100 nM	–
CCCCNC[C@@H](NC(=O)CCCCCC(=O)c1ccc(OC)cc1)C(O)c1ccc2c(c1)OCCO2 (stereo partly shown) [Compound 462]	1000 to 3000 nM	–
CCCCOc1ccc([C@@H](O)C(CN2CC[C@H](O)C2)NC(=O)CCCCCCCOC)cc1 (stereo partly shown) [Compound 592]	≤ 100 nM	–
O=C(Nc1ccc(-c2ccccc2)cc1)N[C@H](CN1CCCC1)[C@H](O)c1ccc2c(c1)OCCO2 [Compound 70, 1-(biphenyl-4-yl)-3-((1R,2R)-1-(2,3-dihydrobenzo[β][1,4]dioxin-6-yl)-1-hydroxy-3-(pyrrolidin-1-yl)propan-2-yl)urea]	–	IC50 [2]: ≤ 100 nM
